# Laboratory results published in patent publication US8183248B2, “Substituted pyrrolo[2,3-d]pyrimidines and compositions as protein kinase inhibitors” (IRM LLC, priority 2005, dated 2012).
# Key:
# [1] = biological target: T1, G250E Bcr-abl (Ba/F3 cells) (Homo sapiens, UniProt P00519, G250E); experiment: Proliferation of Ba/F3 cells expressing G250E Bcr-abl; assay type: cell-based
# T1 construct: expressed in transfected cells; host or cells: Ba/F3 (murine pro-B cells); the other entry of the earlier key: BCR (P11274, Breakpoint cluster region protein)
# Protocol: (§1) 32D-p210 cells are plated into 96 well TC plates at a density of 15,000 cells per well. 50 μL of two fold serial dilutions of the test compound (Cmax is 40 μM) are added to each well (STI571 is included as a positive control). After incubating the cells for 48 hours at 37° C., 5% CO2, 15 μL of MTT (Promega) is added to each well and the cells are incubated for an additional 5 hours. The optical density at 570 nm is quantified spectrophotometrically and IC50 values, the concentration of compound required for 50% inhibition, determined from a dose response curve.
# (§2) Compounds of the invention are tested for their antiproliferative effect on Ba/F3 cells expressing either wild type or the mutant forms of BCR-Abl (G250E, E255V, T315I, F317L, M351T) that confers resistance or diminished sensitivity to STI571. The antiproliferative effect of these compounds on the mutant-BCR-Abl expressing cells and on the non transformed cells were tested at 10, 3.3, 1.1 and 0.37 μM as described above (in media lacking IL3). The IC50 values of the compounds lacking toxicity on the untransformed cells were determined from the dose response curves obtained as describe above.
# [2] = biological target: T2, T315I Bcr-abl (Ba/F3 cells) (Homo sapiens, UniProt P00519, T315I); experiment: Proliferation of Ba/F3 cells expressing T315I Bcr-abl; assay type: cell-based
# T2 construct: expressed in transfected cells; host or cells: Ba/F3 (murine pro-B cells); the other entry of the earlier key: BCR (P11274, Breakpoint cluster region protein)
# Protocol: as §1, §2
# [3] = biological target: T3, F317L Bcr-abl (Ba/F3 cells) (Homo sapiens, UniProt P00519, F317L); experiment: Proliferation of Ba/F3 cells expressing F317L Bcr-abl; assay type: cell-based
# T3 construct: expressed in transfected cells; host or cells: Ba/F3 (murine pro-B cells); the other entry of the earlier key: BCR (P11274, Breakpoint cluster region protein)
# Protocol: as §1, §2
# [4] = biological target: T4, M351T Bcr-abl (Ba/F3 cells) (Homo sapiens, UniProt P00519, M351T); experiment: Proliferation of Ba/F3 cells expressing M351T Bcr-abl; assay type: cell-based
# T4 construct: expressed in transfected cells; host or cells: Ba/F3 (murine pro-B cells); the other entry of the earlier key: BCR (P11274, Breakpoint cluster region protein)
# Protocol: as §1, §2
# FGFR3 = biological target: T5, FGFR3 (Homo sapiens, UniProt P22607); experiment: FGFR3 (Enzymatic Assay); assay type: biochemical
# T5 construct: if the value comes from the Ba/F3-TEL-FGFR3 test; If it comes from the purified enzyme, only the vendor's tag
# Protocol: Kinase activity assay with purified FGFR3 (Upstate) is carried out in a final volume of 10 μL containing 0.25 μg/mL of enzyme in kinase buffer (30 mM Tris-HCl pH7.5, 15 mM MgCl2, 4.5 mM MnCl2, 15 μM Na3VO4 and 50 μg/mL BSA), and substrates (5 μg/mL biotin-poly-EY(Glu, Tyr) (CIS-US, Inc.) and 3 μM ATP). Two solutions are made: the first solution of 5 μl contains the FGFR3 enzyme in kinase buffer was first dispensed into 384-format ProxiPlate® (Perkin-Elmer) followed by adding […] of compounds dissolved in DMSO, then […] of second solution contains the substrate (poly-EY) and ATP in kinase buffer was added to each wells. The reactions are incubated at room temperature for one hour, stopped by adding 10 μL of HTRF detection mixture, which contains 30 mM Tris-HCl pH7.5, 0.5 M KF, 50 mM ETDA, 0.2 mg/mL BSA, 15 μg/mL streptavidin-XL665 (CIS-US, Inc.) and 150 ng/mL cryptate conjugated anti-phosphotyrosine antibody (CIS-US, Inc.). After one hour of room temperature incubation to allow for streptavidin-biotin interaction, time resolved florescent signals are read on Analyst GT (Molecular Devices Corp.). IC50 values are calculated by […] analysis of the percentage inhibition of each compound at 12 concentrations (1:3 dilution from 50 μM to 0.28 nM).
# B-RAF = B-RAF (Homo sapiens, UniProt P15056); experiment: b-Raf Enzymatic Assay; assay type: biochemical
# Protocol: Compounds of the invention are tested for their ability to inhibit the activity of b-Raf. The assay is carried out in 384-well MaxiSorp plates (NUNC) with black walls and clear bottom. The substrate, IκBα is diluted in DPBS (1:750) and 15 μl is added to each well. The plates are incubated at 4° C. overnight and washed 3 times with TBST (25 mM Tris, pH 8.0, 150 mM NaCl and 0.05% Tween-20) using the EMBLA plate washer. Plates are blocked by Superblock (15 μl/well) for 3 hours at room temperature, washed 3 times with TBST and pat-dried. Assay buffer containing 20 μM ATP (10 μl) is added to each well followed by 100 nl or 500 nl of compound. B-Raf is diluted in the assay buffer (1 μl into 25 μl) and 10 μl of diluted b-Raf is added to each well (0.4 μg/well). The plates are incubated at room temperature for 2.5 hours. The kinase reaction is stopped by washing the plates 6 times with TBST. Phosph-IκBα (Ser32/36) antibody is diluted in Superblock (1:10,000) and 15 μl is added to each well. The plates are incubated at 4° C. overnight and washed 6 times with TBST. AP-conjugated goat-anti-mouse IgG is diluted in Superblock (1:1,500) and 15 μl is added to each well. Plates are incubated at room temperature for 1 hour and washed 6 times with TBST. […] Plates are read on Acquest or Analyst GT using a Fluorescence Intensity Program (Excitation 455 nm, Emission 580 nm).
# T5 sequence (P22607 whole entry): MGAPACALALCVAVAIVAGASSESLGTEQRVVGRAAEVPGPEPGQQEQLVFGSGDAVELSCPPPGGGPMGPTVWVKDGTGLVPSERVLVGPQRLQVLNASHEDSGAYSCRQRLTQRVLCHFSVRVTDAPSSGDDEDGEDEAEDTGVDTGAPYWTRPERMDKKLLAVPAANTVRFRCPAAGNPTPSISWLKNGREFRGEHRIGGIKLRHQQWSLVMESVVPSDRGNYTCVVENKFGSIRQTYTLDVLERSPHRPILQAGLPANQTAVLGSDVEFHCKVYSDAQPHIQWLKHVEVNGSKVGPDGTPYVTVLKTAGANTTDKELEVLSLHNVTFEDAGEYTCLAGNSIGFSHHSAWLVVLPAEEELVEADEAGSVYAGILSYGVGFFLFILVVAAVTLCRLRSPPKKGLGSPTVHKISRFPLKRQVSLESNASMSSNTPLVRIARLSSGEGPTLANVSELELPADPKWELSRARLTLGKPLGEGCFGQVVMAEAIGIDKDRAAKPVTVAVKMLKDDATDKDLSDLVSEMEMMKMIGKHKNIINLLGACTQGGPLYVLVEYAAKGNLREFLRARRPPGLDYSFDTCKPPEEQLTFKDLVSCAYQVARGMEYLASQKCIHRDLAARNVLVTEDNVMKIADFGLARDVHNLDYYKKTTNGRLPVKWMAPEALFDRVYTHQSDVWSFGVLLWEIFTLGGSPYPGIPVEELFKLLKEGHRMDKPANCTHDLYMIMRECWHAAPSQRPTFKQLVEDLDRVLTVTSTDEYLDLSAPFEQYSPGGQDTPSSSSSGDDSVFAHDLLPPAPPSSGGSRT
# Chain of B-RAF (P15056 whole entry): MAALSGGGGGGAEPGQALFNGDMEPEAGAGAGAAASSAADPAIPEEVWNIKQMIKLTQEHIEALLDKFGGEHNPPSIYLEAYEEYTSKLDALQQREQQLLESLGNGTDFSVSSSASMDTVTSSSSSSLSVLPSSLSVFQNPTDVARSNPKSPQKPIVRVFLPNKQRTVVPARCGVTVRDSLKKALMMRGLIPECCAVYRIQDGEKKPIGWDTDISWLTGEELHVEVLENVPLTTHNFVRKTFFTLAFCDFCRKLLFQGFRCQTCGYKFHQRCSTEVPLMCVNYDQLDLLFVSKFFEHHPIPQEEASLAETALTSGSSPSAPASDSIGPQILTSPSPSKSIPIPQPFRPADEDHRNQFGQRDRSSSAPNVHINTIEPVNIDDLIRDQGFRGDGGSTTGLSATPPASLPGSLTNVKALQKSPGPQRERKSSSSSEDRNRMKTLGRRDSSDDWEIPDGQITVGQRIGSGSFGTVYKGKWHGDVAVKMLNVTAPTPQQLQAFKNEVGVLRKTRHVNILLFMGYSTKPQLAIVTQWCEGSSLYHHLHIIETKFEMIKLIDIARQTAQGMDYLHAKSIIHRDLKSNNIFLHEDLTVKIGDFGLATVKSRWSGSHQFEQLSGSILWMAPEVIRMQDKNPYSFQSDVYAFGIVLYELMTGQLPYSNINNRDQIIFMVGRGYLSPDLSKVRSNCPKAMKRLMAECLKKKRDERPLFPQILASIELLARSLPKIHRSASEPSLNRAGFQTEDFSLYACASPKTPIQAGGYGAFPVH
compound,measurement,setting,value
"CCN1CCN(Cc2ccc(NC(=O)c3ccc(C)c(NC(=O)N(C)c4ncnc5[nH]ccc45)c3)cc2C(F)(F)F)CC1 [Example 4, N-[4-(4-Ethyl-piperazin-1-ylmethyl)-3-trifluoromethyl-phenyl]-4-methyl-3-[3-methyl-3-(7H-pyrrolo[2,3-d]pyrimidin-4-yl)-ureido]-benzamide]",IC50,[1],< 5 nM
same,IC50,[2],< 5 nM
same,IC50,[3],< 5 nM
same,IC50,[4],< 5 nM
same,IC50,FGFR3,36 nM
same,IC50,B-RAF,100 nM
